Test results taken from patent US8716292B2, “Riminophenazines with 2-(heteroaryl)amino substituents and their anti-microbial activity” (priority 2010, dated 2014).
In brackets after ≈: the same amount, converted by molar mass.

Test system: Mycobacterium tuberculosis H37Rv strains
Assay: In vitro assay for antimicrobial susceptibility (microplate Alamar blue MIC)
Assay type: cell-based
Conditions: Mycobacterium tuberculosis, H37RV, 7H9, Alamar blue, inhibition ≧90%; read-out: MIC (μg/mL) against H37Rv

| Compound | MIC |
| --- | --- |
| CC(C)/N=c1\cc2n(-c3ccc(OC(F)(F)F)cc3)c3ccccc3nc-2cc1Nc1ncccc1[N+](=O)[O-] [TBI-954, 5-(4-Trifluoromethoxyphenyl)-3-(1-methylethyl)imino-2-(3-nitro-2-pyridyl)amino-3,5-dihydrophenazine] | 0.03 µg/mL (≈ 0.0561 µM) |
| COC1CCC(/N=c2\cc3n(-c4ccc(F)cc4)c4ccccc4nc-3cc2Nc2ncccc2[N+](=O)[O-])CC1 (stereo not shown) [TBI-1083, 5-(4-Fluorophenyl)-3-(4-methoxycyclohexyl)imino-2-(3-nitro-2-pyridyl)amino-3,5-dihydrophenazine] | 5.81 µg/mL (≈ 10.8 µM) |
| CC(C)/N=c1\cc2n(-c3ccc(F)c(F)c3)c3ccccc3nc-2cc1Nc1ncccn1 [TBI-1437, 5-(3,4-Difluorophenyl)-3-(1-methylethyl)imino-2-(pyrimidin-2-yl)amino-3,5-dihydrophenazine] | 0.02 µg/mL (≈ 0.0452 µM) |
| CC(C)/N=c1\cc2n(-c3ccc(F)c(F)c3)c3ccccc3nc-2cc1Nc1cnccn1 [TBI-1446, 5-(3,4-Difluorophenyl)-3-(1-methylethyl)imino-2-(pyrazin-2-yl)amino-3,5-dihydrophenazine] | 0.03 µg/mL (≈ 0.0678 µM) |
| COC1CCC(/N=c2\cc3n(-c4ccc(F)c(F)c4)c4ccccc4nc-3cc2Nc2ccc([N+](=O)[O-])cn2)CC1 (stereo not shown) [TBI-1444, 5-(3,4-Difluorophenyl)-3-(4-methoxycyclohexyl)imino-2-(5-nitro-2-pyridyl)amino-3,5-dihydrophenazine] | 0.114 µg/mL (≈ 0.205 µM) |

Same assay, conditions: Mycobacterium tuberculosis, H37RV, in vitro, Mycobacterium tuberculosis H37Rv strains; read-out: MIC (μg/mL) against H37Rv

| Compound | MIC |
| --- | --- |
| COc1ccc(Nc2cc3nc4ccccc4n(-c4ccc(C(F)(F)F)cc4)c-3c/c2=N\C2CCC(OC)CC2)cn1 (stereo not shown) [TBI-735, 5-(4-Trifluoromethylphenyl)-3-(4-methoxycyclohexyl)imino-2-(6-methoxy-3-pyridyl)amino-3,5-dihydrophenazine] | 0.186 µg/mL (≈ 0.324 µM) |
| Cc1ccc(Nc2cc3nc4ccccc4n(-c4ccc(C(F)(F)F)cc4)c-3c/c2=N\C2CCN(C)CC2)cn1 [TBI-697, 5-(4-Trifluoromethylphenyl)-3-(N-methyl-4-piperidyl)imino-2-(6-methyl-3-pyridyl)amino-3,5-dihydrophenazine] | 0.053 µg/mL (≈ 0.0977 µM) |
| COC1CCC(/N=c2\cc3n(-c4ccc(C)cc4)c4ccccc4nc-3cc2Nc2cncc(C)c2)CC1 (stereo not shown) [TBI-330, 5-(4-Methylphenyl)-3-(4-methoxycyclohexyl)imino-2-(5-methyl-3-pyridyl)amino-3,5-dihydrophenazine] | 0.035 µg/mL (≈ 0.0695 µM) |
| COc1ncccc1Nc1cc2nc3cc(C#N)ccc3n(-c3ccc(F)cc3)c-2c/c1=N\C(C)C [TBI-1064, 8-Cyano-5-(4-fluorophenyl)-3-(1-methylethyl)imino-2-(2-methoxy-3-pyridyl)amino-3,5-dihydrophenazine] | 0.24 µg/mL (≈ 0.502 µM) |
| Cc1ccc(-n2c3c/c(=N\C4CCN(CC(C)C)CC4)c(Nc4cccnc4)cc-3nc3ccccc32)cc1 [TBI-305, 5-(4-Methylphenyl)-3-(N-isobutyl-4-piperidyl)imino-2-(3-pyridyl)amino-3,5-dihydrophenazine] | 0.125 µg/mL (≈ 0.242 µM) |
| COc1ncccc1Nc1cc2nc3cc(C#N)ccc3n(-c3ccc(F)cc3)c-2c/c1=N\C1CCC(OC)CC1 (stereo not shown) [TBI-1065, 8-Cyano-5-(4-fluorophenyl)-3-(4-methyoxycyclohexyl)imino-2-(2-methoxy-3-pyridyl)amino-3,5-dihydrophenazine] | > 16 µg/mL |
| Cc1ccc(-n2c3c/c(=N\C4CCN(C5CCCC5)CC4)c(Nc4cccnc4)cc-3nc3ccccc32)cc1 [TBI-307, 5-(4-Methylphenyl)-3-(N-cyclopentyl-4-piperidyl)imino-2-(3-pyridyl)amino-3,5-dihydrophenazine] | 0.125 µg/mL (≈ 0.236 µM) |
| FC(F)(F)Oc1ccc(-n2c3c/c(=N\CCN4CCOCC4)c(Nc4cccnc4)cc-3nc3ccccc32)cc1 [TBI-160] | 0.125 µg/mL (≈ 0.223 µM) |
| COc1ncccc1Nc1cc2nc3ccccc3n(-c3ccc(C)cc3)c-2c/c1=N\C1CCN(CC(C)C)CC1 [TBI-314, 5-(4-Methylphenyl)-3-(N-isobutyl-4-piperidyl)imino-2-(2-methoxy-3-pyridyl)amino-3,5-dihydrophenazine] | 0.024 µg/mL (≈ 0.0439 µM) |
| COC1CCC(/N=c2\cc3n(-c4ccc(F)cc4)c4ccccc4nc-3cc2Nc2cccnc2C)CC1 (stereo not shown) [TBI-1013, 5-(4-Fluorophenyl)-3-(4-methoxycyclohexyl)imino-2-(2-methyl-3-pyridyl)amino-3,5-dihydrophenazine] | 0.019 µg/mL (≈ 0.0374 µM) |
| COc1ncccc1Nc1cc2nc3ccccc3n(-c3ccc(Cl)c(Cl)c3)c-2c/c1=N\C1CCC1 [TBI-946, 5-(3,4-Dichlorophenyl)-3-cyclobutylimino-2-(2-methoxy-3-pyridyl)amino-3,5-dihydrophenazine] | 0.06 µg/mL (≈ 0.116 µM) |
| COc1ccc2nc3cc(Nc4cccnc4OC)/c(=N/C(C)C)cc-3n(-c3ccc(Cl)cc3)c2c1 [TBI-939, 7-Methoxy-5-(4-chlorophenyl)-3-(1-methylethyl)imino-2-(2-methoxy-3-pyridyl)amino-3,5-dihydrophenazine] | 0.125 µg/mL (≈ 0.25 µM) |
| CO[C@H]1CC[C@H](/N=c2\cc3n(-c4ccc(F)cc4)c4ccccc4nc-3cc2Nc2ccc(C)nc2)CC1 [TBI-907, 5-(4-Fluorophenyl)-3-(1′,4′-trans-4-methoxycyclohexyl)imino-2-(6-methyl-3-pyridyl)amino-3,5-dihydrophenazine] | 0.063 µg/mL (≈ 0.124 µM) |
| COC1CCC(/N=c2\cc3n(-c4ccccc4)c4ccccc4nc-3cc2Nc2cncc(C)c2)CC1 (stereo not shown) [TBI-084, 5-Phenyl-3-(4-methoxycyclohexyl)imino-2-(5-methyl-3-pyridyl)amino-3,5-dihydrophenazine] | 0.059 µg/mL (≈ 0.121 µM) |
| COc1ncccc1Nc1cc2nc3ccccc3n(-c3ccc(OC(F)(F)F)cc3)c-2c/c1=N\C1CC1 [TBI-364, 5-(4-Trifluoromethoxyphenyl)-3-cyclopropylimino-2-(2-methoxy-3-pyridyl)amino-3,5-dihydrophenazine] | 0.015 µg/mL (≈ 0.029 µM) |
| COc1ncccc1Nc1cc2nc3ccccc3n(-c3ccc(C)cc3)c-2c/c1=N\C1CCC(O)CC1 (stereo not shown) [TBI-332, 5-(4-Methylphenyl)-3-(4-hydroxycyclohexyl)imino-2-(2-methoxy-3-pyridyl)amino-3,5-dihydrophenazine] | 0.294 µg/mL (≈ 0.581 µM) |

| Compound | MIC |
| --- | --- |
| Cc1ccc(-n2c3c/c(=N\C(C)C)c(Nc4cccnc4)cc-3nc3ccccc32)cc1 [TBI-300, 5-(4-Methylphenyl)-3-(1-methylethyl)imino-2-(3-pyridyl)amino-3,5-dihydrophenazine] | 0.03 µg/mL (≈ 0.0715 µM) |
| COc1ncccc1Nc1cc2nc3ccccc3n(-c3ccc(C)cc3)c-2c/c1=N\CCN1CCOCC1 [TBI-311, 5-(4-Methylphenyl)-3-(2-morpholinoethyl)imino-2-(2-methoxy-3-pyridyl)amino-3,5-dihydrophenazine] | 0.125 µg/mL (≈ 0.24 µM) |
| COc1ncccc1Nc1cc2nc3ccccc3n(-c3ccccc3)c-2c/c1=N\C(C)C [TBI-061, 5-Phenyl-3-(1-methylethyl)imino-2-(2-methoxy-3-pyridyl)amino-3,5-dihydrophenazine] | 0.06 µg/mL (≈ 0.138 µM) |
| COC1CCC(/N=c2\cc3n(-c4cccc(OC(F)(F)F)c4)c4ccccc4nc-3cc2Nc2cccnc2C)CC1 (stereo not shown) [TBI-1033, 5-(3-Trifluoromethoxyphenyl)-3-(4-methoxycyclohexyl)imino-2-(2-methyl-3-pyridyl)amino-3,5-dihydrophenazine] | 0.242 µg/mL (≈ 0.422 µM) |
| COC1CCC(/N=c2\cc3n(-c4ccccc4)c4ccccc4nc-3cc2Nc2ccc(C)nc2)CC1 (stereo not shown) [TBI-072, 5-Phenyl-3-(4-methoxycyclohexyl)imino-2-(6-methyl-pyridyl)amino-3,5-dihydrophenazine] | 0.091 µg/mL (≈ 0.186 µM) |
| COc1ccc(Nc2cc3nc4ccccc4n(-c4ccccc4)c-3c/c2=N\C2CCOCC2)cn1 [TBI-515, 5-Phenyl-3-(4-tetrahydropyranyl)imino-2-(6-methoxy-3-pyridyl)amino-3,5-dihydrophenazine] | 0.233 µg/mL (≈ 0.488 µM) |
| COc1ncccc1Nc1cc2nc3ccccc3n(-c3ccc(NC(C)=O)cc3)c-2c/c1=N\C1CCCCC1 [TBI-1223, 5-(4-Acetamidophenyl)-3-cyclohexylimino-2-(2-methoxy-3-pyridyl)amino-3,5-dihydrophenazine] | 1.49 µg/mL (≈ 2.79 µM) |
| Cc1ccc(Nc2cc3nc4ccccc4n(-c4ccc(C(F)(F)F)cc4)c-3c/c2=N\CCN2CCOCC2)cn1 [TBI-698, 5-(4-Trifluoromethylphenyl)-3-(2-morpholinoethyl)imino-2-(6-meth-3-pyridyl)amino-3,5-dihydrophenazine] | 0.108 µg/mL (≈ 0.193 µM) |
| COc1ccc(Nc2cc3nc4ccccc4n(-c4ccccc4)c-3c/c2=N\C(C)C)cn1 [TBI-510, 5-Phenyl-3-(1-methylethyl)imino-2-(6-methoxy-3-pyridyl)amino-3,5-dihydrophenazine] | 0.5 µg/mL (≈ 1.15 µM) |
| COC1CCC(/N=c2\cc3n(-c4ccccc4)c4ccccc4nc-3cc2Nc2cccnc2)CC1 (stereo not shown) [TBI-059, 5-Phenyl-3-(4-methoxycyclohexyl)imino-2-(3-pyridyl)amino-3,5-dihydrophenazine] | 0.125 µg/mL (≈ 0.263 µM) |
| COc1ncccc1Nc1cc2nc3ccccc3n(-c3ccc(F)c(F)c3)c-2c/c1=N\C1CCCCC1 [TBI-531, 5-(3,4-Difluorophenyl)-3-cyclohexylimino-2-(2-methoxy-3-pyridyl)amino-3,5-dihydrophenazine] | 0.03 µg/mL (≈ 0.0586 µM) |
| Cc1ccc(Nc2cc3nc4ccccc4n(-c4ccc(Cl)c(Cl)c4)c-3c/c2=N\C(C)C)cn1 [TBI-353] | 0.025 µg/mL (≈ 0.0512 µM) |
| COc1ncccc1Nc1cc2nc3ccccc3n(-c3ccccc3)c-2c/c1=N\C1CC1 [TBI-097, 5-Phenyl-3-cyclopropylimino-2-(2-methoxy-3-pyridyl)amino-3,5-dihydrophenazine] | 0.032 µg/mL (≈ 0.0738 µM) |
| COC1CCC(/N=c2\cc3n(-c4ccc(Cl)cc4)c4ccc(F)cc4nc-3cc2Nc2ccc(C)nc2)CC1 (stereo not shown) [TBI-938, 8-Fluoro-5-(4-chlorophenyl)-3-(4-methoxycyclohexyl)imino-2-(6-methyl-3-pyridyl)amino-3,5-dihydrophenazine] | 0.125 µg/mL (≈ 0.231 µM) |
| FC(F)(F)Oc1cccc(-n2c3c/c(=N\C4CCC4)c(Nc4cccnc4)cc-3nc3ccccc32)c1 [TBI-1027, 5-(3-Trifluoromethoxyphenyl)-3-cyclobutylimino-2-(3-pyridyl)amino-3,5-dihydrophenazine] | 0.383 µg/mL (≈ 0.764 µM) |
| Clc1ccccc1-n1c2c/c(=N\C3CC3)c(Nc3cccnc3)cc-2nc2ccccc21 [TBI-892, 5-(2-Chlorophenyl)-3-cyclopropylimino-2-(3-pyridyl)amino-3,5-dihydrophenazine] | 0.028 µg/mL (≈ 0.0639 µM) |
